Entries after “also recorded” stand apart in the source; their conditions may differ. Where a name gives a salt, the structure may show the parent alone. Blank lines part the entries; values can stand above or below the compound they belong to.
Tests used:
[1] = Stability of form II: suspension stirred in solvent, solid analysed by XRPD; type: physicochemical
Experimental: 2.0 g of anagrelide hydrochloride monohydrate form II was suspended in 20 ml solvent. […] At certain time points, a small amount of the suspension was filtered over a P3-glass filter (reduced pressure). The solids were air-dried overnight at RT.
(§1) In the above examples, the XRPD patterns were recorded on a Bruker-AXS D8 vario (Θ/2Θ geometry, reflection mode, Vantec PSD detector) operating at the following settings: […]

[2] = cited from earlier work
[3] = Conversion study in ethanol at specified stirring temperature, XRPD; type: physicochemical; conditions: for Crystal form (XRPD): ethanol, stirring time 2 hours only
Experimental: The suspension was filtered over a P3-glass filter (reduced pressure), washed with solvent and dried.
as §1

[4] = Stability of form I: suspension stirred in solvent, solid analysed by XRPD; type: physicochemical; conditions: RT
Experimental: […] The suspension was filtered over a P3-glass filter (reduced pressure), washed with solvent and dried.
as §1

[5] = Instant solubility in buffers, Milli-Q water and 0.1 M HCl (HPLC-UV); type: physicochemical; conditions: USP acetate buffer pH 4.5, USP phosphate buffer pH 6.8, Milli-Q water and 0.1 M HCl; room temperature; 0-60 minutes; Figure 5; hydrochloride monohydrate
Experimental: The instant solubility of anagrelide hydrochloride monohydrate form II, form I and free base was determined in USP acetate buffer pH 4.5, USP phosphate buffer pH 6.8, Milli-Q water (herein below "MQ") and 0.1 M HCl. About 30 mg of the drug substance was transferred into a clear 50 ml sample jar and a stirring bar was added. Subsequently 30 ml of test medium was added; the vial was closed and placed on a magnetic stirrer. Under constant stirring at room temperature samples of 2 ml were taken at t=0, 10, 20, 30, 40, 50, and 60 minutes. The samples were immediately filtered through a 0.45 µm syringe disk filter (first ml was discarded) and analyzed at once with the HPLC-UV method described in Table 1. The solubility was calculated in mg/ml anagrelide free base against an external standard (AGL.hcl.mhy.120310) dissolved in acetonitrile/milli-Q (ACN/MQ) (50:50). Table 1 HPLC-UV parameters used for instant solubility testing

[6] = Polymorphic stability on exposure to air / air-drying; type: physicochemical

converts into anagrelide free base ([1]; in water): 30 to 180 min
SMILES: O=C1CN2Cc3c(ccc(Cl)c3Cl)N=C2N1 [Anagrelide hydrochloride monohydrate]
solubility in water [2]: very slightly soluble

Crystal form (XRPD) ([3]; stirring temperature 72.5 °C): I + II | Crystal form (XRPD) ([3]; stirring temperature 75 °C): mostly I, some II left
SMILES: Cl.O.O=C1CN2Cc3c(ccc(Cl)c3Cl)N=C2N1 [anagrelide hydrochloride monohydrate]

XRPD ([4]; 2-propanol, 16 hours): Form I + II | XRPD ([4]; Acetone, 2 days): Form II | XRPD ([4]; Demi-water, 30 min): Anagrelide base | XRPD ([4]; Demi-water, 180 min): Anagrelide base | XRPD ([4]; Ethanol, 30 min): Form II | XRPD ([4]; Ethanol, 16 hours): Form II | XRPD ([4]; Ethyl acetate, 2 days): Form II
SMILES: O=C1CN2Cc3c(ccc(Cl)c3Cl)N=C2N1 [form I, anagrelide hydrochloride monohydrate]

instant solubility compared to form I [5]: more soluble; also recorded: higher | XRPD ([1]; 2-propanol, 30 min, RT): Form II | XRPD ([1]; 2-propanol, 60 min, RT): Form II | XRPD ([1]; 2-propanol, 120 min, RT): Form II | XRPD ([1]; 2-propanol, overnight, RT): Form II | XRPD ([1]; Demi-water, 30 min, RT): Form II + anagrelide base | XRPD ([1]; Demi-water, 60 min, RT): Form II + anagrelide base | XRPD ([1]; Demi-water, 120 min, RT): Form II + anagrelide base | XRPD ([1]; Demi-water, 180 min, RT): Anagrelide base | XRPD ([1]; Ethanol, 30 min, RT): Form II | XRPD ([1]; Ethanol, 60 min, RT): Form II | XRPD ([1]; Ethanol, 120 min, RT): Form II | XRPD ([1]; Ethanol, 3 hours, reflux): Form I | XRPD ([1]; Ethanol, overnight, RT): Form II | polymorphic change on air-drying ([6]; air-drying at ambient temperature): does not cause any polymorphic change | transition point ([3]; form II / form I, suspension in ethanol): around 72.5 °C | stable at temperatures ([3]; suspension in ethanol): below 70 °C
SMILES: O=C1CN2Cc3c(ccc(Cl)c3Cl)N=C2N1 [form II, anagrelide hydrochloride monohydrate]
polymorphic stability ([1]; ambient temperature, ethanol, 2-propanol, acetone, ethyl acetate, compared with form I): polymorphically stable at ambient temperature and even more stable than form I | stability against aqueous hydrolysis ([1]; stirred in demi-water for up to 180 minutes, compared with form I): more stable against aqueous hydrolysis than form I

SMILES: O=C1CN2Cc3c(ccc(Cl)c3Cl)N=C2N1 [form III, anagrelide hydrochloride monohydrate]
stability when exposed to air ([6]; exposed to air): converts into form I or a mixture of forms I and II

From patent EP2945948B1, “CRYSTALLINE FORM II OF ANAGRELIDE HYDROCHLORIDE MONOHYDRATE” (Synthon BV, priority 2013, dated 2014)
